# Data from patent US20180161292A1, “NUTRITIONAL COMPOSITIONS CONTAINING BUTYRATE AND USES THEREOF” (Mead Johnson Nutrition Company, priority 2016, published 2018).
# System: oligodendrocyte precursor cells (OPCs)
# Assay: OPC differentiation into mature oligodendric cells (MBP / PDGFRa immunostaining)
# Type: cell-based, rat
# Method: The OPCs were purified from P7 rat brain cortices. Rodent brain cortices were diced and dissociated with papain at 37° C. After trituration, […] were resuspended in a panning buffer and incubated at room temperature sequentially on the three immunopanning dishes: Ran-2 and GaIC were used for negative selection before positive selection with 04. OPCs were released from the panning dish using 0.05% Trypsin. OPCs were seeded onto PPL-coated coverslips at 200,000 per 25 mm circle coverslip in a chemically defined culture medium with PDGFa overnight.
# Sodium Butyrate (NaB) was dissolved in sterile water and added into culture medium the next day to reach desire concentration. OPC coverslips were placed into 6-well dishes, 1 ml of NaB-containing culture medium without PDGFa was added to each well. Cells were cultured for 48 hours before fixation and immunostaining. PDGFRa antibody identifies OPCs and MBP (myelin basic protein) antibody labels differentiated oligodendrocytes. Percentage of MBP-positive cells out of all PDGFRa- and MBP-positives cells were quantified.
# Examining a dose response for sodium butyrate on purified oligodendroglial cultures. Sodium butyrate was added to purified oligodendroglial cultures and cells were analyzed after 48 hours of treatment for effects on survival, proliferation and differentiation. Oligodendrocyte precursor cells were immunostained with PDGFRa shown in green, oligodendrocytes were immunostained with MBP in red, cell nuclei were labeled with DAPI in blue. Percentage of MBP-positive oligodendrocytes among all oligodendroglial cells was quantified at various concentrations of sodium butyrate. The asterisks represent significance based on Students t-test with the respective controls (*p<0.05, **p<0.01)
smiles,measurement,setting,value
CCCC(=O)[O-].[Na+] [sodium butyrate],number of oligodendric cells from OPC compared to the control (MBP immunohistochemistry),"250 μM sodium butyrate, FIG. 7",statistically significant increase
same,fold increase in the numbers of differentiated and matured oligodendric cells as compared to the control,"250 μM sodium butyrate, purified OPCs from P7 rat brain cortices, 48 hours, FIG. 1",2.6 fold
same,effect to promote OPC to differentiate into mature oligodendric cells,"dose response 50 nM to 250 μM, 48 hours, FIG. 1",dose-dependent manner
same,increase in Oligo cells as compared to the control,"each of the concentrations of sodium butyrate (50 nM, 500 nM, 5 μM, 50 μM, 250 μM), 48 hours, Student's t-test, FIG. 1",statistically significant increase
